Test results reported in patent US20060159617A1, “Small technetium-99m and rhenium labeled agents and methods for imaging tissues, organs and tumors” (priority 2002, published 2006).

Assays:
[1] = Determination of lipophilicity and pKa values by HPLC; assay type: physicochemical; conditions: for k' (pH = 7.4): HPLC capacity factor at pH 7.4; for k' (Max): HPLC capacity factor, maximum; for pKa (Corrected): HPLC method, corrected with standard amines
Description: The lipophilicity and pKa values of all complexes were determined using HPLC methods described previously (Stylli, C.; Theobald, A. E. Determination of Ionization Constants of Radiopharmaceuticals in Mixed Solvents by HPLC. Appl. Radiat. Isot., 1987, 38, 701-708; Johannsen, B.; Scheunemann, M.; Spies, H.; Brust, P.; Wober, J.; Syhre, R.; Pietzsch, H.-J. Technetium(V) and Rhenium(V) Complexes for 5-HT2A Serotonin Receptor Binding: Structure-Affinity Considerations. Nucl. Med. Biol., 1996, 23, 429-438; and Johannsen, B.; Berger, R.; Brust, P.; Pietzsch, H.-J.; Scheunemann, M.; Seifert, S.; Spies, H.; Syhre, R. Structural Modification of Receptor-Binding Technetium-99m Complexes in Order to Improve Brain Uptake. Eur. J. Nucl. Med. 1997, 24, 316-319). […] The mobile phase was acetonitrile:phosphate buffer (0.01 M), 3:1, v/v, with the aqueous buffer adjusted to the desired pH between 3 and 11. The capacity factor (k′) was calculated for each determination (Braumann, T.; Grimme, L. H. Determination of Hydrophobic Parameters for Pyridazinone Herbicides by Liquid-Liquid Partition and Reversed-Phase High-Performance Liquid Chromatography. J. Chromatogr. 1981, 206, 7-15; El Tayer, N.; van der Waterbeemd, H.; Testa, B. Lipophilicity Measurements of Protonated Basic Compounds by Reversed-Phase High-Performance Liquid Chromatography. II. Procedure for the Determination of a Lipophilic Index Measured by Reversed-Phase High Performance Liquid Chromatography. J. Chromatogr. 1985, 320, 305-312; and Minick, D. J.; Frenz, J. H.; Patrick, M. A.; Brent, D. A. A Comprehensive Method for Determining Hydrophobicity Constants by Reversed-Phase High-Performance Liquid Chromatography. J. Med. Chem., 1988, 31, 1923-1933) and the partition coefficient at a given pH (D or logD) were calculated from the equation: log D=a log k′+b where the parameters a and b are predetermined using standard amines. The fitted points of inflection from the sigmoidal DHPLC/pH profiles permit calculation of the pKHPLC(Stylli, C.; Theobald, A. E. Determination of Ionization Constants of Radiopharmaceuticals in Mixed Solvents by HPLC. Appl. Radiat. Isot., 1987, 38, 701-708). The aqueous ionization constants pKa were calculated from the pKHPLC values after correction with a predetermined correction factor obtained using standard amine compounds. Log P values of the neutral complexes were estimated from the respective upper plateau of the sigmoidal log D/pH curve in the alkaline range.

5HT1A receptor = molecular target: T1, 5HT1A receptor (Rattus norvegicus, UniProt P19327); experiment: 5HT1A receptor competition binding assay with [3H]-8-OH-DPAT; conditions: apparent Ki, rat hippocampus
T1 construct: The brains were rapidly removed, and hippocampus, frontal cortex, hypothalamus, and striatum were hand-dissected on ice; from tissue; host or cells: male Sprague-Dawley rat hippocampus membranes
T1 sequence (P19327 1-422): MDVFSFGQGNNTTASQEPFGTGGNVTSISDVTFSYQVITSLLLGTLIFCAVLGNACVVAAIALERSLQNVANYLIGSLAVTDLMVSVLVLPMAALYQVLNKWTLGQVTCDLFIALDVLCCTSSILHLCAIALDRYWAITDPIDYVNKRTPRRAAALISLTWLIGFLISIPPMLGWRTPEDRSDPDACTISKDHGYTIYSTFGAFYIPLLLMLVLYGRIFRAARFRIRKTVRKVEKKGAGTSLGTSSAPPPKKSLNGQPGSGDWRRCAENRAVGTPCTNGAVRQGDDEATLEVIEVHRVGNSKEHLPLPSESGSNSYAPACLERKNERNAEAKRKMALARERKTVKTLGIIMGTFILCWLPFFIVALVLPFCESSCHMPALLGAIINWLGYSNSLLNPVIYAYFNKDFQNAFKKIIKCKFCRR
Description: The in vitro 5HT1A binding affinities of rhenium coordinated complexes were determined in a competition assay using rat hippocampus and high-affinity 5HT1A-ligand [^3H]-8-OH-DPAT (135 Ci/mmol, NEN Life Science Inc., Cambridge, Mass.). See, Brain Res. 1995, 673, 217-225.
Male Sprague-Dawley rats (weighing 150-170 g) were sacrificed using anesthesia agent isoflurane. The brains were rapidly removed, and hippocampus, frontal cortex, hypothalamus, and striatum were hand-dissected on ice and stored at −70° C. Tissue was thawed at room temperature and homogenized using a Brinkmann Polytron tissue disrupter in 50 volumes (wt/vol) of ice-cold 50 mM Tris-HCl buffer (pH 7.4). The suspension was centrifuged twice at 27,000 g for 20 min at 4° C. The membrane pellets were resuspended in 50 volumes of (wt/vol) Tris-HCl buffer and incubated at 37° C. for 20 min in a water bath, before a final centrifugation step (27,000 g; 20 min; 4° C.). The final tissue pellets were stored at −70° C. until assayed.
Twelve concentrations of the nonradioactive rhenium complexes ranging from 1×10^−11 to 1×10^−4 and protein samples (0.15 mg of membrane protein) were incubated with 1.5 nM [^3H]-8-OH-DPAT in a total volume of 0.25 mL of Tris-HCl (50 mM, pH 7.4, 10 mM MgSO4). Incubations were carried out for 60 min at 25° C. All assays were terminated by dilution with 5 mL of ice-cold Tris-HCl (10 mM), pH 7.4, and solution were filtered through glass-fiber filters (Whatman GF/F; presoaked in 0.5% polyethyleneimine for 30 min at 25° C.). Filters were then washed three times with 5 mL of ice-cold Tris-HCl (50 mM, pH 7.4), and counted in Hionic-Fluor cocktail (Packard, Groningen, the Netherlands). The corresponding IC50 values were determined with Origin 6.0 software (OriginLab, Northampton, Mass.) and were used for the calculation of the apparent Ki values with the Cheng-Prusoff equation. See, Biochem. Pharmacol. 1973, 22, 3099-3108.

COc1ccccc1C1CCN(CCCN2CC[S][Re]3(=[O])[S]CC[N]3C(=O)C2)CC1 (centres unmarked) [Re-16]
k' (pH = 7.4) [1]: 57 | k' (Max) [1]: 117 | pKa (Corrected) [1]: 8.09 | Ki (5HT1A receptor): 4.5 ± 0.4 nM

O=C1CN(CCCN2CCC(Cc3ccccc3)CC2)CC[S][Re]2(=[O])[S]CC[N]12 (centres unmarked) [Re-15]
k' (pH = 7.4) [1]: 60 | k' (Max) [1]: 160 | pKa (Corrected) [1]: 8.34 | Ki (5HT1A receptor): 589 ± 70 nM
